Measured values taken from patent EP0080682A1, “Bisisoquinolinium compound, pharmaceutical compositions and synthesis” (THE WELLCOME FOUNDATION LIMITED, priority 1981, dated 1983).
Like-named read-outs stand apart in the source and are kept apart here.

Tests used:
[1] = test system: isometric twitch of the tibialis anterior muscle; assay: Neuromuscular block after intravenous administration: isometric twitch of the tibialis anterior muscle in response to peroneal nerve stimulation, Rhesus monkeys; assay type: in vivo; conditions: Rhesus Monkey
Excerpt: (§1) Trans, trans-2,2'-(trimethylenebis(carbonyloxytri- methylene))bis(1,2,3,4-tetrahydro-6,7,8-trimethoxy-2-methyl-1-(3,4,5-trimethoxybenzyl)isoquinolinium) dichloride (prepared as in Example 3) was examined by intravenous administration to cats and Rhesus monkeys, maintained by artificial ventilation and prepared for recording the isometric twitch of the tibialis anterior muscle in response to stimulation of peroneal nerve.

[2] = test system: isometric twitch of the tibialis anterior muscle; assay: Neuromuscular block after intravenous administration: isometric twitch of the tibialis anterior muscle in response to peroneal nerve stimulation, cats; assay type: in vivo; conditions: Cat
Excerpt: as §1

[3] = cited from earlier work
[4] = intravenous, time from injection to 95% recovery

## COc1cc(CC2c3c(cc(OC)c(OC)c3OC)CC[N+]2(C)CCCOC(=O)CCCC(=O)OCCC[N+]2(C)CCc3cc(OC)c(OC)c(OC)c3C2Cc2cc(OC)c(OC)c(OC)c2)cc(OC)c1OC (stereo not drawn) [Example 1, trans, trans-2,2'-(trimethylenebis(carbonyloxytrimethy-lene))bis(1,2,3,4-tetrahydro-6,7,8-trimethoxy-2-methyl-1-(3,4,5-trimethoxybenzyl)isoquinolinium) dichloride]
[1]; Macaca mulatta, intravenous administration, artificial ventilation, 4 animals
  ED95: 0.05 mg/kg
[1]; [4]
  Duration: ≃15^+ Minutes
[2]; [4]
  Duration: ≃25 Minutes
[2]; Felis catus, intravenous administration, artificial ventilation, 2 animals
  ED95: 0.03 mg/kg

## COc1cc2c3cc1Oc1cc(ccc1O)C[C@@H]1c4c(cc(OC)c(O)c4Oc4ccc(cc4)C[C@@H]3N(C)CC2)CC[N+]1(C)C [d-tubocurarine]
[3]; clinical use, compared with intravenous paralysing dose of compounds of formula (I)
  dose of agents most widely used clinically: 0.4 to 0.6 mg/kg

## CC(=O)O[C@H]1C[C@@H]2CC[C@@H]3[C@H](CC[C@@]4(C)[C@H]3C[C@H]([N+]3(C)CCCCC3)[C@@H]4OC(C)=O)[C@@]2(C)C[C@@H]1[N+]1(C)CCCCC1 [pancuronium]
[3]; in vivo
  dose of agents most widely used clinically: 0.06 to 0.08 mg/kg
